Patent EP2266530A1, “Oxazolidinones for cosmetic cutaneous use” (Laboratoires Expanscience, priority 2002, dated 2004)

Columns and labels:
cellules de Langerhans = assay: Migration of freshly isolated, DNSB-sensitised Langerhans cells through Matrigel in a two-compartment culture chamber; conditions: for inhibition de la migration des CL induite par le DNSB (result in words): compound 1 µM
Description: Des suspensions de cellules épidermiques ont été obtenues par traitement enzymatique (0,05% trypsine, pendant 18h à +4°C) de fragments de peau humaine normale issus de chirurgie plastique. Les suspensions obtenues contiennent en moyenne 2 à 4% de CL. L'obtention de suspensions contenant en moyenne 70% de CL est basée sur le principe de la centrifugation sur gradient de densité (Lymphoprep™) et élimination des kératinocytes.
Le milieu de base choisi pour l'ensemble de l'étude a été le RPMI 1640 (Gibco BRL, France).
On a utilisé comme agent sensibilisateur le DNSB (Sigma Aldrich), forme soluble du DNCB (dinitro-chloro-benzène), solubilisé en RPMI-BSA et utilisé à la concentration de 50 µM.
Un système de chambre de culture à deux compartiments (Falcon, Becton Dickinson, France) a été utilisé. Le compartiment supérieur est séparé du compartiment inférieur par une membrane de porosité 8 µm, sur laquelle sont déposées 50 µg/cm^2 de Matrigel. La membrane est alors recouverte de protéines formant un film équivalent à une membrane basale (laminine, collagène IV, nidogène, entactine, héparane sulfate protéoglycanes). Les cellules reprises dans le milieu RPMI-BSA seul ou en présence des différents produits sont déposées dans le compartiment supérieur. Dans le compartiment inférieur, est ajouté du surnageant de culture de fibroblastes humains normaux. Après 18h d'incubation à 37°C, le nombre de cellules vivantes ayant traversé le Matrigel et se trouvant dans le compartiment inférieur est compté sous microscope (les CL sont facilement identifiables par leur forme dendritique). Chaque essai est réalisé en triplicate.
Dans l'expression des résultats, la capacité migratoire des CL contrôle (non traitées et non sensibilisées) est arbitrairement fixée à 1.

cellules dendritiques = assay: FITC-induced migration of dendritic cells from ear skin to draining lymph nodes in mice (flow cytometry); assay type: in vivo, souris
Description: Le FITC (Fluorescéine isothiocyanate, Sigma, St. Louis, MO) a été dilué extemporanément dans un mélange acétone : dibutylphthalate (1:1).
L'oxazolidinone B et le LU105 (LU 105 est un inhibiteur de MMPs, correspondant à un extrait peptidique de lupin blanc commercialisé par la Société Expanscience sous le nom de marque Actimp 193®) ont été fournis par les "Laboratoires Expanscience", et formulés seuls ou en association dans un véhicule inerte compatible avec une application topique, tel que décrit à l'exemple 1 ci-dessus [oxazolidinone B (0,5%) ± LU105 (2%)]. Les différentes formulations ont été appliquées sur les oreilles de souris deux fois par jour pendant 4 jours consécutifs. Trois heures après la dernière application, 1,5% de FITC sont appliqués sur les deux oreilles (l'une traitée et l'autre non traitée (Contrôle)).
L'effet des deux molécules a été évalué in vivo chez la souris. La peau des deux oreilles est badigeonnée avec 1,5% FITC (2X5 µl). 24 h après, les souris sont sacrifiées et une suspension cellulaire est préparée à partir des ganglions auriculaires et cervicaux (ganglions drainants, ci-après dénommés GL) ou à partir des ganglions popliteaux (ganglions non drainants, contrôle négatif). Les tissus ont été découpés et les cellules sont séparées par filtration (filtre […], Falcon; Becton Dickinson), puis lavés. […]

O=[N+]([O-])c1ccc(S(=O)(=O)O)c([N+](=O)[O-])c1 [DNSB, reference compound]
stimulation de la migration des CL par rapport aux cellules contrôle (cellules de Langerhans; Example 3, DNSB 50 µM alone): +113%
Index de migration (cellules de Langerhans; Example 4, cells sensitised with DNSB alone, control cells = 1): 1,78

CCCCCCCCCCCCC1COC(=O)N1 (centres unmarked) [oxazolidinone A, 4-dodécyl-oxazolidin-2-one]
inhibition de la migration des CL induite par le DNSB (result in words) (cellules de Langerhans; Example 3): inhibent de manière significative

CCCCCCCCCCCCC1NC(=O)OC1CCCCCCCCCCCC (centres unmarked) [oxazolidinone B, 4,5-didodécyl-oxazolidin-2-one]
inhibition de la migration des CL induite par le DNSB (result in words) (cellules de Langerhans; Example 3): inhibent de manière significative
inhibition de la migration des CL sensibilisées (result in words) (cellules de Langerhans; Example 4, tested separately): inhibent de manière significative
Inhibition de la migration en % (cellules dendritiques; 0,5% topical on mouse ears, twice daily for 4 days, FITC 1,5%, read 24 h later): 28%
inhibition de la migration des CD vers les GL (result in words) (cellules dendritiques; mice sensitised with FITC, oxazolidinone B alone): inhibe de manière significative

CCCCCCCCCCCCC1COC(=O)N1CCCCCCCCCCCC (centres unmarked) [oxazolidinone C, 3,4-didodécyl-oxazolidin-2-one]
inhibition de la migration des CL induite par le DNSB (result in words) (cellules de Langerhans; Example 3): inhibent de manière significative
